Measured values: patent US12358899B2, “Thyroid hormone receptor agonists and uses thereof” (XIZANG HAISCO PHARMACEUTICAL CO., LTD., priority 2018, dated 2025)

Columns and labels:
Thyroidectomized rats = assay: Heart safety evaluation in hypothyroid rat: heart rate; assay type: in vivo; conditions: 100 mg/kg oral gavage, monitored for 1 hour, 10% change is normal noise
Procedure: SD Rats underwent thyroidectomy and recovered for 10 days. T3 and T4 were tested to confirm the complete thyroidectomy. […] Note that the dose for these compounds was […] higher than their therapeutic dose (1 mg/kg by oral gavage) in mouse models. For comparison, thyroid hormone T3 was also tested at 0.1 mg/kg with intraperitoneal injection. […] After 6 hours, the heart tissues were collected to quantitate the expression of α-MHC, a thyroid hormone responsive and THRα-target gene in heart.

CYP 1A2 = biological target: T1, CYP 1A2 (Homo sapiens, UniProt P05177); assay: CYP inhibition in human liver microsome, 1A2; assay type: in vitro ADME; conditions: human liver microsomes, substrate phenacetin, top 50 μM; read-out: CYP450 inhibition IC50 1A2
T1 construct: from tissue; host or cells: human liver microsomes
T1 sequence (P05177 1-516): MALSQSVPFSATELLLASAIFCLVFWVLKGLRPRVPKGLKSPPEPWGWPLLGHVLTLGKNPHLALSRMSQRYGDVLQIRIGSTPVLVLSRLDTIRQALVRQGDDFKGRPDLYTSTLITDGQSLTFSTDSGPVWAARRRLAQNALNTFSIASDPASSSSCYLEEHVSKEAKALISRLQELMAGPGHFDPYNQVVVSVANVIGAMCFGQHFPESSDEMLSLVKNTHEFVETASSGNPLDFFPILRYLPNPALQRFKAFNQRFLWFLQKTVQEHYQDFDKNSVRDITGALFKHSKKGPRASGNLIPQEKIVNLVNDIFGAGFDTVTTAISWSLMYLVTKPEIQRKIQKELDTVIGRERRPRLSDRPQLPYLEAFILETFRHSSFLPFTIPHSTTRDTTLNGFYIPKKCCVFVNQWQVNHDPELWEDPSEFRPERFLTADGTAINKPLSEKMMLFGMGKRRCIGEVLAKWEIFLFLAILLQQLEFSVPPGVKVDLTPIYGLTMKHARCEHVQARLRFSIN
Procedure: (§1) Test compounds were evaluated for CYP inhibition using human liver microsomes (HLM). Test compounds were 1:3 serially diluted starting at 50 μM to generate 7 different concentrations. After incubation of diluted test compounds with HLM, a substrate cocktail composed of phenacetin (10 uM), amodiaquine (2 uM), diclofenac (5 uM), s-mephenytoin (30 uM), dextromethorphan (5 uM), and midazolam (2 uM) was added to check the remaining CYP activity for CYP 1A2, 2C8, 2C9, 2C19, 2D6 and 3A4. The CYP activity was measured by detecting the peak area of individual metabolites of know CYP substrates using LC/MS/MS. A percentage of inhibition of CYP was calculated at each final concentration of test compound, through which an IC50 was fitted to represent the inhibition potential.

THRα-LBD = biological target: T2, THRα-LBD (Homo sapiens, UniProt P10827); assay: THR coactivator recruitment assay (LanthaScreen TR-FRET), THRα; assay type: biochemical; conditions: for THRα Bmax % (vs T3): maximum activity relative to the maximum activity of 500 nM T3
T2 construct: purchased ThermoFisher
Procedure: The coactivator recruitment assay was performed using LanthaScreen™ TR-FRET TR coactivator assay kit (ThermoFisher). […] The diluted test compounds were mixed with the same volume of other reagents (10 μl:10 μl). […] In addition, the selectivity for each compound was normalized for the selectivity of T3 run in the same assay.

C57BL/6cnc mice [1] = assay: Cholesterol-lowering efficacy in high cholesterol diet-induced hypercholesterolemia mouse model; assay type: in vivo; conditions: for LDL-c / plasma TC / liver TC / liver TG: high cholesterol diet mice, 0.3, 1, 3 mg/kg daily oral gavage; for LDL-c / plasma TC: 2-week treatment; for liver TC / liver TG: 2 weeks; for expression of DIO1 in liver: qPCR, mRNA of THRβ target gene; for expression of DIO1 in liver / compound concentration in heart / blood and liver distribution / efficacy in reducing liver cholesterol compared with MGL-3196: high cholesterol diet mice; for compound concentration in heart: at end of study; for blood and liver distribution: compound concentration at end of study
Procedure: To further confirm the PD effects of compounds, another diet induced NAFLD mouse model was used. C57BL/6cnc mice were fed with the diet containing 1.5% cholesterol and 0.5% cholic acid (Research Diets, D12109C) for 2 weeks prior to the initiation of treatment. The cholesterol lowering efficacy of compounds disclosed herein was tested in two separate studies. […] Thyroid hormone T3 (0.1 mg/kg, intraperitoneal injection) was evaluated as a positive control in the second study. The treatment lasted two weeks with daily oral gavage. Blood samples were taken at the end of study for plasma cholesterol and LDL-c detection. At the end of study, the liver tissues were taken for measurement of the hepatic cholesterol levels. DIO1 is a THRβ target gene in liver, and its mRNA level reflects the activity of THRO. Therefore, the expression of DIO1 was also quantitated in liver tissue by qPCR to examine the target engagement by these compounds. The compound concentration was quantified in blood, liver and heart.

C57BL/6cnc mice [2] = assay: Antifibrotic and fat reduction efficacy in NASH mouse model; assay type: in vivo; conditions: for liver TC / liver TG / plasma LDL-c level / plasma TC level / ALT level / liver weight / overall activity in the second NASH study, compounds compared / LDL-c level: 1 mg/kg daily oral; for ALT level / liver weight: to normal range; for expression of DIO1 in liver: end of study
Procedure: C57BL/6cnc mice were fed with high-fat diet containing 60 kacl % fat and 0.10% methionine (no added choline) (Research Diets, A06071302) for 12 weeks to induce NASH model. After 12-week diet induction, the mice had increased plasma levels of TC, LDL-c, ALT, and fibrosis markers. Two studies were performed on this diet-induced NASH model with different compounds and treatment durations. […] Serum biochemistry was measured before dosing during study. At the end of the experiment, liver was collected to measure liver TC and TG. Livers were punched in 2 mm diameter and fixed, sectioned and stained with Sirius Red, and the fibrosis and steatosis were scored.

CYP 2C9 = biological target: T3, CYP 2C9 (Homo sapiens, UniProt P11712); assay: CYP inhibition in human liver microsome, 2C9; assay type: in vitro ADME; conditions: human liver microsomes, substrate diclofenac, top 50 μM; read-out: CYP450 inhibition IC50 2C9
T3 construct: from tissue; host or cells: human liver microsomes
Procedure: as §1

CYP 2C8 = biological target: T4, CYP 2C8 (Homo sapiens, UniProt P10632); assay: CYP inhibition in human liver microsome, 2C8; assay type: in vitro ADME; conditions: human liver microsomes, substrate amodiaquine, top 50 μM; read-out: CYP450 inhibition IC50 2C8
T4 construct: from tissue; host or cells: human liver microsomes
T4 sequence (P10632 1-490): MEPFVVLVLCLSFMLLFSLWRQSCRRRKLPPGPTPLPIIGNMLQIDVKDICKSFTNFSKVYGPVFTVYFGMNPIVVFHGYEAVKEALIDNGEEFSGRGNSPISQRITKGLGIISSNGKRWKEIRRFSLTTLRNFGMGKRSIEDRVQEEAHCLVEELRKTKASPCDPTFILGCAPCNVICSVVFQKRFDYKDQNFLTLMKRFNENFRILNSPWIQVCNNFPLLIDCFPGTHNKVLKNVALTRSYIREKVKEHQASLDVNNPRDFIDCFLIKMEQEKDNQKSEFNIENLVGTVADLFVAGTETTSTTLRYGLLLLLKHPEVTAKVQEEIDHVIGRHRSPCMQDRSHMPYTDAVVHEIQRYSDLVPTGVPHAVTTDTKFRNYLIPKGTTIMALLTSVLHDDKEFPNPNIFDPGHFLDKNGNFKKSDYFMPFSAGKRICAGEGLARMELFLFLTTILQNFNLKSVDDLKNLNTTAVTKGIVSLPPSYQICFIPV
Procedure: as §1

[3] = first NASH study, 12 weeks, as early as 6 days after treatment

T3 sequence (P11712 whole entry): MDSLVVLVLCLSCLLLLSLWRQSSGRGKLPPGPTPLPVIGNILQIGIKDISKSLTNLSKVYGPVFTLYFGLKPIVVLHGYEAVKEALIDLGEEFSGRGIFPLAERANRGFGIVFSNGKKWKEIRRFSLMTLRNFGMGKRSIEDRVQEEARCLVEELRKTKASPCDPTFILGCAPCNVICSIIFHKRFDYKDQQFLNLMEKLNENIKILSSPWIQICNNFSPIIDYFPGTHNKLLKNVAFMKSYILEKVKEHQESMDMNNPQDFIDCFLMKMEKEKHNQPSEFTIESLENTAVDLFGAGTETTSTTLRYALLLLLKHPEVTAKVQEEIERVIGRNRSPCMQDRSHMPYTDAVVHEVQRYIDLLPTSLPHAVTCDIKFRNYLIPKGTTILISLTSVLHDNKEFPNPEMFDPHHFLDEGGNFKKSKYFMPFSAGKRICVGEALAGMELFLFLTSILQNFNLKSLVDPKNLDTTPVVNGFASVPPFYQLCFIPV
T2 sequence (P10827 163-410 isoform P10827-2 limits assumed, other chains not shown): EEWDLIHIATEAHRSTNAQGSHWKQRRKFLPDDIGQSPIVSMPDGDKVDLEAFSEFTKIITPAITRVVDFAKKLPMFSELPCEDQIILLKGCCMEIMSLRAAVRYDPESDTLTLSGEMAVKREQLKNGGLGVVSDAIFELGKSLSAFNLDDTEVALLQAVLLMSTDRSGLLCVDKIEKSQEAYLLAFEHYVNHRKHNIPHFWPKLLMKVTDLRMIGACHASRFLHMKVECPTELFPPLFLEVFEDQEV

IC50 (CYP 1A2) [µM]	THRα Bmax % (vs T3) (THRα-LBD) [%]	IC50 (CYP 2C9) [µM]	IC50 (CYP 2C8) [µM]	compound concentration in heart (C57BL/6cnc mice [1])	blood and liver distribution (C57BL/6cnc mice [1])	SMILES	heart rate change (Thyroidectomized rats)	LDL-c (C57BL/6cnc mice [1])	plasma TC (C57BL/6cnc mice [1])	liver TC (C57BL/6cnc mice [1])	liver TG (C57BL/6cnc mice [1])	expression of DIO1 in liver (C57BL/6cnc mice [1])	liver TC (C57BL/6cnc mice [2]; first NASH study, 12 weeks)	liver TG (C57BL/6cnc mice [2]; first NASH study, 12 weeks)	plasma LDL-c level (C57BL/6cnc mice [2]; first NASH study, 12 weeks)	plasma TC level (C57BL/6cnc mice [2]; [3])	efficacy in reducing liver cholesterol compared with MGL-3196 (C57BL/6cnc mice [1])	overall activity in the second NASH study, compounds compared (C57BL/6cnc mice [2]; 6 weeks)	LDL-c level (C57BL/6cnc mice [2]; second NASH study, 6 weeks)	plasma TC level (C57BL/6cnc mice [2]; second NASH study, 6 weeks)	other results
> 50	49	18.8	4.31	–	–	CC(C)c1cc(Oc2c(Cl)cc(-n3nc(C#N)c(=O)[nH]c3=O)cc2Cl)n[nH]c1=O [MGL-3196, reference compound]	only mildly affected	reduced	reduced	significantly decreased	significantly decreased	dose-dependently upregulated	significantly decreased	significantly decreased	reduced to normal range	reduced	–	–	–	–	ALT level (C57BL/6cnc mice [2]; first NASH study, 12 weeks): reduced; liver weight (C57BL/6cnc mice [2]; first NASH study, 12 weeks): reduced
> 50	34	22.1	4.24	not detectable	similar	[2H]c1c(Cl)c(Oc2cc(C(C([2H])([2H])[2H])C([2H])([2H])[2H])c(=O)[nH]n2)c(Cl)c([2H])c1-n1nc(C#N)c(=O)[nH]c1=O [Example 30, 2-(3,5-dichloro-4-((6-oxo-5-(propan-2-yl-1,1,1,3,3,3-d6)-1,6-dihydropyridazin-3-yl)oxy)phenyl-2,6-d2)-3,5-dioxo-2,3,4,5-tetrahydro-1,2,4-triazine-6-carbonitrile]	no heart rate change	reduced	reduced	–	–	dose-dependently upregulated	–	–	–	–	as effective as MGL-3196	less potent	reduced	reduced	–
> 50	36	15.6	3.08	not detectable	similar	C[C@@H]1CCc2c(Oc3c(Cl)cc(-n4nc(C#N)c(=O)[nH]c4=O)cc3Cl)n[nH]c(=O)c21 (single isomer, unassigned) [Example 41]	no heart rate change	reduced	reduced	–	–	dose-dependently upregulated	–	–	–	–	as effective as MGL-3196	equivalent	reduced	reduced	EC50 (THRα-LBD; EC50 class from TR-FRET ratio 520:495 dose response, read-out: THRα binding): 0.1 to 1 µM; liver TC (C57BL/6cnc mice [2]; second NASH study, 6 weeks): significantly decreased; liver TG (C57BL/6cnc mice [2]; second NASH study, 6 weeks): significantly decreased; expression of DIO1 in liver (C57BL/6cnc mice [2]; second NASH study): significantly increased

SMILES	IC50 (CYP 1A2) [µM]	THRα Bmax % (vs T3) (THRα-LBD) [%]	IC50 (CYP 2C9) [µM]	IC50 (CYP 2C8) [µM]	compound concentration in heart (C57BL/6cnc mice [1])	blood and liver distribution (C57BL/6cnc mice [1])	heart rate change (Thyroidectomized rats)	LDL-c (C57BL/6cnc mice [1])	plasma TC (C57BL/6cnc mice [1])	liver TC (C57BL/6cnc mice [1])	liver TG (C57BL/6cnc mice [1])	expression of DIO1 in liver (C57BL/6cnc mice [1])	liver TC (C57BL/6cnc mice [2]; first NASH study, 12 weeks)	liver TG (C57BL/6cnc mice [2]; first NASH study, 12 weeks)	plasma LDL-c level (C57BL/6cnc mice [2]; first NASH study, 12 weeks)	plasma TC level (C57BL/6cnc mice [2]; [3])	efficacy in reducing liver cholesterol compared with MGL-3196 (C57BL/6cnc mice [1])	overall activity in the second NASH study, compounds compared (C57BL/6cnc mice [2]; 6 weeks)	LDL-c level (C57BL/6cnc mice [2]; second NASH study, 6 weeks)	plasma TC level (C57BL/6cnc mice [2]; second NASH study, 6 weeks)	other results
[2H]C([2H])([2H])C(c1cc(Oc2c(Cl)cc(-n3nc(C#N)c(=O)[nH]c3=O)cc2Cl)n[nH]c1=O)C([2H])([2H])[2H] [Example 7, 2-(3,5-dichloro-4-((6-oxo-5-(propan-2-yl-1,1,1,3,3,3-d6)-1,6-dihydropyridazin-3-yl)oxy)phenyl)-3,5-dioxo-2,3,4,5-tetrahydro-1,2,4-triazine-6-carbonitrile]	> 50	41	30.7	7.56	not detectable	similar	only mildly affected	reduced	reduced	significantly decreased	significantly decreased	dose-dependently upregulated	significantly decreased	significantly decreased	reduced to normal range	reduced	as effective as MGL-3196	equivalent	reduced	reduced	ALT level (C57BL/6cnc mice [2]; first NASH study, 12 weeks): reduced; liver weight (C57BL/6cnc mice [2]; first NASH study, 12 weeks): reduced; fibrosis score (C57BL/6cnc mice [2]; first NASH study, Sirius Red histopathology, versus control group and MGL-3196-treated group): much lower; liver TC (C57BL/6cnc mice [2]; second NASH study, 6 weeks): significantly decreased; liver TG (C57BL/6cnc mice [2]; second NASH study, 6 weeks): significantly decreased; expression of DIO1 in liver (C57BL/6cnc mice [2]; second NASH study): significantly increased
